Laboratory results taken from PubChem BioAssay AID1963434 (Molecular Pharmacology Branch, DTP, NCI, 2024).

Tested on: 755483-174-R-J1-PDC complex spheroid growth, percent test/control
Assay: Anticancer human tumor 755483-174-R-J1-PDC patient-derived rhabdomyosarcoma cell line growth inhibition [Asc]
Conditions: for IC50: curve of first compound; for viability, T/C: stronger effect = lower value
Method: Multicellular complex tumor spheroid response to apoptosis pathway targeting inhibitors Alrizomadlin, Pelcitoclax, and Dasminapant in combination with a variety of drugs and investigational agents in selected tumor cell lines
The MDM2 inhibitor alrizomadlin, the Bcl-2/Bcl-xL inhibitor pelcitoclax, and the IAPs inhibitor dasminapant were evaluated both individually and in combination with standard of care and investigational anticancer small molecules within a complex spheroid model of solid tumors. . Complex spheroids include a stromal component modeled by human endothelial cells (HUVEC) and fibroblasts modeled by human mesenchymal stem cells (MSCs). The concentration ranges selected for each drug and investigational agent were based upon clinically achievable concentrations if the clinical Cmax of the agent was known.
Compounds. The drugs and investigational agents: alrizomadlin (APG-115; NSC831270), pelcitoclax (APG-1252; NSC835773), dasminapant (APG-1387;NSC834197), TAK-243 (NSC785004), copanlisib (NSC809693), olaparib (NSC753686), talazoparib (NSC767125), cobimetinib (NSC 768068), eltanexor (KPT-8602, NSC 794443), abemaciclib (NSC 768073), sotorasib (NSC818433), adagrasib (NSC 831453), MRTX-1133 (NSC 836407), Iadademestat (ORY1001, NSC 806812), and RMC-4630 (NSC839698), were obtained from the NCI Developmental Therapeutics Program Chemical Repository. The FDA-approved anticancer drug set is available from the Developmental Therapeutics Program at https://dtp.cancer.gov/organization/dscb/obtaining/available plates.htm. […] The stock solutions were prepared in dimethyl sulfoxide (DMSO, Sigma-Aldrich, St. Louis, MO, cat. D2650) at 800-fold the tested concentration and stored at -70 degrees C prior to their use. All drugs and investigational agents were tested over a range starting from a high concentration at or near the clinical Cmax and decreasing in half-log increments. If the clinical Cmax for an agent had not been determined, the highest concentration tested was 10 microM.
The patient-derived cancer (PDC) cell lines include five colon adenocarcinomas: 186277-243-T-J2-PDC, 616215-338-R-J1-PDC, 439559-082-T-J2-PDC, 463943-066-T-J2-PDC, and 519858-162-T-J1-PDC; three pancreatic carcinomas: 323965-272-R-J2-PDC, 521955-158-R6-J3-PDC, and 521955-158-R2-J5-PDC; two uterine sarcomas: 327498-152-R-J2-PDC and 993429-296-R-J1-PDC; two rhabdomyosarcomas: 755483-174-R-J1-PDC and 772245-204-R-J1-PDC; two soft tissue sarcomas: 126254-015-R-J1-PDC and 494315-158-R-J1-PDC; two malignant fibrous histiocytomas: 317291-083-R-J1-PDC and 596521-263-R-J1-PDC; two breast carcinomas: 171881-019-R-J1-PDC and 885512-296-R-J2-PDC; and one ovarian carcinoma: 6556581-035-R-J-PDC were obtained from the NCI PDMR, (https://pdmr.cancer.gov). The established cell lines HSSY-2 synovial sarcoma (RRID:CVCL 8719), SYO-1 synovial sarcoma (RRID:CVCL_7146), MPNST malignant peripheral neural sheath tumor were obtained from the Sloan Kettering Institute. The following established cell lines were purchased from the American Type Culture Collection (ATCC, Manassas, VA), Sor the received from the NCI repository:, PANC-1 pancreatic carcinoma (CRL-1469, RRID:CVCL_0480), OVCAR-5 ovarian carcinoma (RRID:CVCL_1628), OVCAR-8 ovarian carcinoma (RRID:CVCL_1629), , MCF-7 breast carcinoma (CRL-12584, RRID:CVCL_0031), MDA-MB-231 breast carcinoma (CRL-12532, RRID:CVCL_0062), NCI-H1876 small cell lung carcinoma (CRL-5902, RRID:CVCL_1503), NCI-H510A small cell lung carcinoma (HTB-184, RRID:CVCL_1565), NCI-H1417 (CRL-5869, RRID:CVCL_1469), and NCI-H196 small cell lung carcinoma (CRL-5823, RRID:CVCL_1509). Dr. Peter Houghton (Greehey Children's Cancer Research Institute, University of Texas Health Science Center, San Antonio, TX) provided Rh-18 rhabdomyosarcoma (RRID:CVCL_1659). Pooled donor human umbilical vein endothelial cells (HUVEC, Lonza, cat. CC-2519) and human mesenchymal stem cells (hMSC, Lonza, cat. PT-2501) were purchased from Lonza (Walkersville, MD).
Cell Culture. […]

[1] = second compound 0.03 µM, first compound 0.00316 µM
[2] = second compound 0.03 µM, first compound 0.01 µM
[3] = second compound 0.03 µM, first compound 0.0316 µM
[4] = second compound 0.03 µM, first compound 0.1 µM
[5] = second compound 0.0949 µM, first compound 0.00316 µM
[6] = second compound 0.0949 µM, first compound 0.01 µM
[7] = second compound 0.0949 µM, first compound 0.0316 µM
[8] = second compound 0.0949 µM, first compound 0.1 µM
[9] = second compound 0.3 µM, first compound 0.00316 µM
[10] = second compound 0.3 µM, first compound 0.01 µM
[11] = second compound 0.3 µM, first compound 0.0316 µM
[12] = second compound 0.3 µM, first compound 0.1 µM
[13] = second compound 0.949 µM, first compound 0.00316 µM
[14] = second compound 0.949 µM, first compound 0.01 µM
[15] = second compound 0.949 µM, first compound 0.0316 µM
[16] = second compound 0.949 µM, first compound 0.1 µM
[17] = second compound 3 µM, first compound 0.00316 µM
[18] = second compound 3 µM, first compound 0.01 µM
[19] = second compound 3 µM, first compound 0.0316 µM
[20] = second compound 3 µM, first compound 0.1 µM
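Note: spheroids exposed to compounds for seven days before readout.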

| SMILES | IC50 (second compound 0.03 µM) [nM] | IC50 (second compound 0.0949 µM) [nM] | IC50 (second compound 0.3 µM) [nM] | IC50 (second compound 0.949 µM) [nM] | IC50 (second compound 3 µM) [nM] | viability, T/C [1] [%] | viability, T/C [2] [%] | viability, T/C [3] [%] | viability, T/C [4] [%] | viability, T/C [5] [%] | viability, T/C [6] [%] | viability, T/C [7] [%] | viability, T/C [8] [%] | viability, T/C [9] [%] | viability, T/C [10] [%] | viability, T/C [11] [%] | viability, T/C [12] [%] | viability, T/C [13] [%] | viability, T/C [14] [%] | viability, T/C [15] [%] | further results |
| --- | --- | --- | --- | --- | --- | --- | --- | --- | --- | --- | --- | --- | --- | --- | --- | --- | --- | --- | --- | --- | --- |
| Cn1ncnc1[C@H]1c2n[nH]c(=O)c3cc(F)cc(c23)N[C@@H]1c1ccc(F)cc1 + CCN1C(C(=O)NC23CCC(C(=O)O)(CC2)CC3)C(c2cccc(Cl)c2F)C2(C(=O)Nc3cc(Cl)ccc32)C12CCCCC2 | 10.9 | 12.4 | 5.94 | 7.98 | 1.56 | 55.6 | 48.1 | 45.9 | 35.1 | 62.7 | 54.1 | 31.1 | 35.5 | 58.6 | 42.7 | 30.4 | 32.6 | 74 | 45.4 | 43.1 | viability, T/C (second compound 0.03 µM, first compound 0.000316 µM): 64.6%; viability, T/C (second compound 0.03 µM, first compound 0.001 µM): 64.9%; viability, T/C (second compound 0.0949 µM, first compound 0.000316 µM): 70.1%; viability, T/C (second compound 0.0949 µM, first compound 0.001 µM): 71.2%; viability, T/C (second compound 0.3 µM, first compound 0.000316 µM): 64.9%; viability, T/C (second compound 0.3 µM, first compound 0.001 µM): 55%; viability, T/C (second compound 0.949 µM, first compound 0.000316 µM): 66.6%; viability, T/C (second compound 0.949 µM, first compound 0.001 µM): 66.2%; viability, T/C [16]: 33.8%; viability, T/C (second compound 3 µM, first compound 0.000316 µM): 59.6%; viability, T/C (second compound 3 µM, first compound 0.001 µM): 51.8%; viability, T/C [17]: 45.5%; viability, T/C [18]: 45.5%; viability, T/C [19]: 41.6%; viability, T/C [20]: 39.3% |
| O=C(c1ccc(F)c(F)c1Nc1ccc(I)cc1F)N1CC(O)([C@@H]2CCCCN2)C1 + CCN1C(C(=O)NC23CCC(C(=O)O)(CC2)CC3)C(c2cccc(Cl)c2F)C2(C(=O)Nc3cc(Cl)ccc32)C12CCCCC2 | 534 | 338 | 426 | 273 | 329 | 85.3 | 108 | 95.4 | 99.2 | 113 | 124 | 117 | 93.5 | 109 | 109 | 102 | 118 | 126 | 127 | 134 | viability, T/C (second compound 0.03 µM, first compound 0.316 µM): 78.3%; viability, T/C (second compound 0.03 µM, first compound 1 µM): 16%; viability, T/C (second compound 0.0949 µM, first compound 0.316 µM): 53%; viability, T/C (second compound 0.0949 µM, first compound 1 µM): 18.6%; viability, T/C (second compound 0.3 µM, first compound 0.316 µM): 61%; viability, T/C (second compound 0.3 µM, first compound 1 µM): 18.2%; viability, T/C [16]: 121%; viability, T/C (second compound 0.949 µM, first compound 0.316 µM): 39.8%; viability, T/C (second compound 0.949 µM, first compound 1 µM): 18.3%; viability, T/C [17]: 104%; viability, T/C [18]: 120%; viability, T/C [19]: 90%; viability, T/C [20]: 97.5%; viability, T/C (second compound 3 µM, first compound 0.316 µM): 50.3%; viability, T/C (second compound 3 µM, first compound 1 µM): 16.4% |
